Reference: the NIST ThermoML archive (doi:10.1021/je300810p)
Numbers after ± are expanded uncertainties.

How the values were obtained:
[1] = Liquid; for mass density: 101.33 kPa, Pycnometric method
[2] = refractive index (Na D-line) (dimensionless); details: 101.33 kPa, Liquid, Standard Abbe refractometry

mass density ([1]; 298.15 K) [kg/m3] | vapor or sublimation pressure ([1]; 391.43 K) [kPa] | refractive index ([2]; 298.15 K) | mass density ([1]; 289.15 K) [kg/m3] | vapor or sublimation pressure ([1]; 293.91 K) [kPa] | refractive index ([2]; 293.15 K) | vapor or sublimation pressure ([1]; 351.46 K) [kPa] | SMILES
1049.42 ± 0.45 | 101.33 ± 3.4 | 1.3716 ± 0.0025 | – | – | – | – | CC(=O)O [acetic acid]
– | – | – | 788.02 ± 0.36 | 101.33 ± 2.6 | 1.3328 ± 0.0025 | – | CC=O [ethanal]
784.88 ± 0.36 | – | 1.3592 ± 0.0025 | – | – | – | 101.33 ± 2.6 | CCO [ethanol]
